What all share (experiment): biochemical
Experiment [1] addresses T1, panel of 374 wild-type kinases (Homo sapiens, UniProt P05771).
T1 construct: purchased Reaction Biology Corporation
To be noted: read-out: % Enzyme Activity (relative to DMSO controls), kinase PKCb1.

The target of experiment [2] is T2, panel of 374 wild-type kinases (Homo sapiens, UniProt Q16644).
T2 construct: purchased Reaction Biology Corporation
The conditions noted are these: read-out: % Enzyme Activity (relative to DMSO controls), MAPKAPK3.

The target of experiment [3] is T3, panel of 374 wild-type kinases (Homo sapiens, UniProt P11802).
T3 construct: purchased Reaction Biology Corporation
T3 sequence (P11802 whole entry): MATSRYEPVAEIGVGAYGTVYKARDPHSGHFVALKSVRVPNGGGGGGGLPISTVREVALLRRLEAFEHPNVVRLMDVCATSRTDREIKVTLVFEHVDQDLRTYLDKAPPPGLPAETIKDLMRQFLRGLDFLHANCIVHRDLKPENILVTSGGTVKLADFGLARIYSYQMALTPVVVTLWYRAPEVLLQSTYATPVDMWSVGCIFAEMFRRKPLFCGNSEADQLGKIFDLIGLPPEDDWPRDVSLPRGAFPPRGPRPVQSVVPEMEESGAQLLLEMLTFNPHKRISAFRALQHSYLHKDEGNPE

For experiment [4], the target named is T4, panel of 374 wild-type kinases (Homo sapiens, UniProt Q15746).
T4 construct: purchased Reaction Biology Corporation
T4 sequence (Q15746 whole entry): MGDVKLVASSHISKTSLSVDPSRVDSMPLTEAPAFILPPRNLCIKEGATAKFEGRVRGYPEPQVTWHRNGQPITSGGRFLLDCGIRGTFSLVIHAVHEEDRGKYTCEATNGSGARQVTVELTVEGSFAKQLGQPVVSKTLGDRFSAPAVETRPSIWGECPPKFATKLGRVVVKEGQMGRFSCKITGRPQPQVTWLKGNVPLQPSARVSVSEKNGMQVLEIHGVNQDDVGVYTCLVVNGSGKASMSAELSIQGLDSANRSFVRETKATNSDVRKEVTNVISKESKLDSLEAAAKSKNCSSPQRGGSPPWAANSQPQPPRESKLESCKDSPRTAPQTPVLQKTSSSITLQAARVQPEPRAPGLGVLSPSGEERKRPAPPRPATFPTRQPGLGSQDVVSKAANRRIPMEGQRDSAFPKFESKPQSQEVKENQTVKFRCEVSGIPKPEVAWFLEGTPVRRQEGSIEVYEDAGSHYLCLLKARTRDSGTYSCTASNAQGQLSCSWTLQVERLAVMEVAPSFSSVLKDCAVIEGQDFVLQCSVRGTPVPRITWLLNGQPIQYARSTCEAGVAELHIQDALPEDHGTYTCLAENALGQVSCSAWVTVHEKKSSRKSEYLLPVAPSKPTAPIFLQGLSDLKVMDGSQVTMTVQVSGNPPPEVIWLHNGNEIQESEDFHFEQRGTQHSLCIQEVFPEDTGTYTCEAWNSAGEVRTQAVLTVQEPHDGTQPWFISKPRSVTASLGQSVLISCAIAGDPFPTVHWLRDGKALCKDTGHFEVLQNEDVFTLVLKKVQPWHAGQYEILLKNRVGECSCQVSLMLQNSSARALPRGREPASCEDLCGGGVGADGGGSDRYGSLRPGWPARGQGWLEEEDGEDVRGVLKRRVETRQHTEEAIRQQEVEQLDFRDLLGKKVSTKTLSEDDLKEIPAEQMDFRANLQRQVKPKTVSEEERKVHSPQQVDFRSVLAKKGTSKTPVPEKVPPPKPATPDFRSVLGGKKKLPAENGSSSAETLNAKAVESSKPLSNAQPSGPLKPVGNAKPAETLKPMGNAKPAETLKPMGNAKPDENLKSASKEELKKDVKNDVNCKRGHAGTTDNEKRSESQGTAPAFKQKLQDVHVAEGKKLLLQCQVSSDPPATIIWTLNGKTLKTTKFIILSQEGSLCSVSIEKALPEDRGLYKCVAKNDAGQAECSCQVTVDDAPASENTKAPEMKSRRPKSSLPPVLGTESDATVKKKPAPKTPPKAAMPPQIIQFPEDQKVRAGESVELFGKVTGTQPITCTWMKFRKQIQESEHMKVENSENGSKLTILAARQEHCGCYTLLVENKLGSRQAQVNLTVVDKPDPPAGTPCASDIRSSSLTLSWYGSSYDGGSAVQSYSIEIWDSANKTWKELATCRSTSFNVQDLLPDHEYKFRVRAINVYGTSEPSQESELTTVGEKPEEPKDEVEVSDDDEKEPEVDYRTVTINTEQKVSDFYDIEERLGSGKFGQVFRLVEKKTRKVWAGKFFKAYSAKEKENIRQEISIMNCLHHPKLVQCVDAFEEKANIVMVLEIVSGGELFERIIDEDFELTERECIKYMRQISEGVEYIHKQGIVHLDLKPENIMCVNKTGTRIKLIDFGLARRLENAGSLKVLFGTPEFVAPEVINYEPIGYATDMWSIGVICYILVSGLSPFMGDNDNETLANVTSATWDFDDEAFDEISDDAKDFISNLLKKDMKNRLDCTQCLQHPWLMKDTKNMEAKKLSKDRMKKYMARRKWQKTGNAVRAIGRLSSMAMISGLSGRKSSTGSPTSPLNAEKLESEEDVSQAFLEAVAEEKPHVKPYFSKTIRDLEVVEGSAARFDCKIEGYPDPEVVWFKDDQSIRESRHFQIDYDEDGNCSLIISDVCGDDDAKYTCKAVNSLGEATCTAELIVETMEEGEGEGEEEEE
The conditions noted are these: read-out: % Enzyme Activity (relative to DMSO controls), MLCK/MYLK.

The target of experiment [5] is T5, panel of 374 wild-type kinases (Homo sapiens, UniProt P54760).
T5 construct: purchased Reaction Biology Corporation
T5 sequence (P54760 16-987): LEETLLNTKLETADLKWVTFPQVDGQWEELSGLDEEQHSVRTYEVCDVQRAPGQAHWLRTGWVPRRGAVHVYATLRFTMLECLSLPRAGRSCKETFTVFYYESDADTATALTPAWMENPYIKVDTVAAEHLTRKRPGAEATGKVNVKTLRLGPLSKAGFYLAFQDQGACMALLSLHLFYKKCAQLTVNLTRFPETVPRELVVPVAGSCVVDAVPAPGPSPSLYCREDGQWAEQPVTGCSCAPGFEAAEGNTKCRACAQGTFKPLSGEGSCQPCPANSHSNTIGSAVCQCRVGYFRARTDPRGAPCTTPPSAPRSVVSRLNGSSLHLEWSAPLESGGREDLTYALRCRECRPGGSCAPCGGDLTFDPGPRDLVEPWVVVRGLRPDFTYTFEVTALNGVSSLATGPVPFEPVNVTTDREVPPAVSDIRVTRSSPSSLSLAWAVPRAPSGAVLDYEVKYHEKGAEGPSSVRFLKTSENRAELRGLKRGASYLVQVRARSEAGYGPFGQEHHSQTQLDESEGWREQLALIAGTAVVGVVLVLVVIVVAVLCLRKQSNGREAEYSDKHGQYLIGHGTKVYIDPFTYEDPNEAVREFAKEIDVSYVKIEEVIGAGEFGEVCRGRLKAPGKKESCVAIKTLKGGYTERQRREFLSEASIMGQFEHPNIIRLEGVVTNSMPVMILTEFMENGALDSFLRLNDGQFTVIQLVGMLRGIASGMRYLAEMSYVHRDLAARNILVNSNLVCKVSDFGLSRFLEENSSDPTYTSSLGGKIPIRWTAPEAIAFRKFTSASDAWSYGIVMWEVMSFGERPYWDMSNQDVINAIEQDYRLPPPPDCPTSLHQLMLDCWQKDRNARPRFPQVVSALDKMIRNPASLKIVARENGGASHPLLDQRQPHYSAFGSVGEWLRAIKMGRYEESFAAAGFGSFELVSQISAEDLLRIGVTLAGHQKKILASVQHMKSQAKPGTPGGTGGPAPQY
To be noted: read-out: % Enzyme Activity (relative to DMSO controls), EPHB4.

The target of experiment [6] is T6, panel of 374 wild-type kinases (Homo sapiens, UniProt P45984).
T6 construct: purchased Reaction Biology Corporation
T6 sequence (P45984 whole entry): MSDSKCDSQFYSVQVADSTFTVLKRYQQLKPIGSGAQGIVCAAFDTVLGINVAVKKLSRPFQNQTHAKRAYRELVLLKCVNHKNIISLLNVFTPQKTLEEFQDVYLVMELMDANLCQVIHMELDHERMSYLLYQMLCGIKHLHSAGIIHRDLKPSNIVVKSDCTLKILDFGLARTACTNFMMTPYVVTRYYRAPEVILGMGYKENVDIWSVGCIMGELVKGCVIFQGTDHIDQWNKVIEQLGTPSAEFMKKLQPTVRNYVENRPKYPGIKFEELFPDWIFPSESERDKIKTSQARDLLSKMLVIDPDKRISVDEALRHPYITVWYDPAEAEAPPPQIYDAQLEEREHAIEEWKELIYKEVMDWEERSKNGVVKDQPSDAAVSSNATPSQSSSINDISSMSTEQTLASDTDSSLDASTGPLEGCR
The conditions noted are these: JNK2, read-out: % Enzyme Activity (relative to DMSO controls).

Experiment [7] concerns the target T7, panel of 374 wild-type kinases (Homo sapiens, UniProt Q96L34).
T7 construct: purchased Reaction Biology Corporation
T7 sequence (Q96L34 1-752): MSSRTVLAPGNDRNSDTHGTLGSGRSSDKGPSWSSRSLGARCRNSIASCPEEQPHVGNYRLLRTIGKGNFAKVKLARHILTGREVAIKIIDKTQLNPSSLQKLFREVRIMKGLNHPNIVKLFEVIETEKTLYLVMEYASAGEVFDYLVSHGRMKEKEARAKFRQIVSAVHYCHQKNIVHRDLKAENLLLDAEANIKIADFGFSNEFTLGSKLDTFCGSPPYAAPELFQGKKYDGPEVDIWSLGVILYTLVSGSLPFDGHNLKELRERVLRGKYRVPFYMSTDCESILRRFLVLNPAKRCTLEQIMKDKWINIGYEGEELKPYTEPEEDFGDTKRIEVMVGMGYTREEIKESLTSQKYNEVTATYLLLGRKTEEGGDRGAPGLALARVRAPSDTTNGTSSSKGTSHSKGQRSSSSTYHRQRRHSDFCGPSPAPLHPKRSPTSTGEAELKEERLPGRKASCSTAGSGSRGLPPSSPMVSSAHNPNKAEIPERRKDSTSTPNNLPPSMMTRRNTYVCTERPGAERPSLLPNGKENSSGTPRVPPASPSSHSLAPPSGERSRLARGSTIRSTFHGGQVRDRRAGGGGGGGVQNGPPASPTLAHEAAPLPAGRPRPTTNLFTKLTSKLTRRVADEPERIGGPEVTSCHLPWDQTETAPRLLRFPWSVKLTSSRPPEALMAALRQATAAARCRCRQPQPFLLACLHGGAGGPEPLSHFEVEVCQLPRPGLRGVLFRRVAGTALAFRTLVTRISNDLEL
To be noted: read-out: % Enzyme Activity (relative to DMSO controls), MARK4.

Where [8] appears, read: read-out: % Enzyme Activity (relative to DMSO controls), CDK4/cyclin D1.
Where [9] appears, read: read-out: % Enzyme Activity (relative to DMSO controls), CDK4/cyclin D3.

The structures appear in SMILES notation. Where two headings read alike, the source gives them in different places.

The record followed here is patent US20240246942A1, “KINASE INHIBITORS FOR THE TREATMENT OF NEURODEGENERATIVE DISEASES” (priority 2020, published 2024).

T2 sequence (Q16644 whole entry): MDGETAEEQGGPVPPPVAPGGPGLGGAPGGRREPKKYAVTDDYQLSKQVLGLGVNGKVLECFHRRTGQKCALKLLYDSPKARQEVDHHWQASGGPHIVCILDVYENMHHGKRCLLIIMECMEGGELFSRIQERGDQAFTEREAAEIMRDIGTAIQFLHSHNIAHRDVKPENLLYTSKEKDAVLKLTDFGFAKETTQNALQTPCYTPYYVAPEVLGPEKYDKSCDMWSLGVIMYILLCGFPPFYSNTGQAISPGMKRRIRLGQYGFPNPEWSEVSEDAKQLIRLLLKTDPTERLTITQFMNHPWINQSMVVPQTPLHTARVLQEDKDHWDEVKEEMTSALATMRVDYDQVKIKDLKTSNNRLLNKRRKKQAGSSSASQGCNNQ
T1 sequence (P05771 whole entry): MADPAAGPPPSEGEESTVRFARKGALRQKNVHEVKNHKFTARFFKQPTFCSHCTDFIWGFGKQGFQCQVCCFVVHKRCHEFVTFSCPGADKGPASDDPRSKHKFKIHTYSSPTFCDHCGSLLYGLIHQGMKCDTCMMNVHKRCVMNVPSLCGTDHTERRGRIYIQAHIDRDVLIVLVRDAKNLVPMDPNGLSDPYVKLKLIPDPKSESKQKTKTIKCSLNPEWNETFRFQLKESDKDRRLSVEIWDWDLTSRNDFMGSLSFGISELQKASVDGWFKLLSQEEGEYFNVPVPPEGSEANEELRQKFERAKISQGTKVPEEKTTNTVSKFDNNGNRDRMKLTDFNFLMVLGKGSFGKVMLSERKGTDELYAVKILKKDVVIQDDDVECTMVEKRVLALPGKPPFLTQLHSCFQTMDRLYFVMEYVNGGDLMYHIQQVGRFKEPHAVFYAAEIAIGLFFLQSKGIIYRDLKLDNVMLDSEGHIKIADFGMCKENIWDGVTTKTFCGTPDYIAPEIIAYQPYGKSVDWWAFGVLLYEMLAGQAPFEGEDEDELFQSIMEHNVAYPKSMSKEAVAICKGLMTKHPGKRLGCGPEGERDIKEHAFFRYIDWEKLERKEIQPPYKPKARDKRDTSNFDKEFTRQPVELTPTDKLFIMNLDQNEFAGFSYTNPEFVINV

As for `Cc1sc(C(=O)NC2COC2)cc1-n1cc(NC(=O)Nc2c(F)cccc2Cl)cn1` [Compound 27, 4-(4-(3-(2-chloro-6-fluorophenyl)ureido)-1H-pyrazol-1-yl)-5-methyl-N-(oxetan-3-yl)thiophene-2-carboxamide], the remaining activity at 10 µM came to 111% in experiment [1] (10 uM); 110% in experiment [2] (10 uM); 78% in experiment [3] (setting [8]); 96.5% in experiment [3] (setting [9]); 103% in experiment [4] (10 uM); 93.7% in experiment [5] (10 uM). Besides, the remaining activity at 10 µM is 51.9% in experiment [6] (10 uM) and 108% in experiment [7] (10 uM).

With `O=C(Nc1cnn(-c2csc(C(=O)NC3COC3)c2)c1)Nc1c(F)cccc1Cl` [Compound 25, 4-(4-(3-(2-chloro-6-fluorophenyl)ureido)-1H-pyrazol-1-yl)-N-(oxetan-3-yl)thiophene-2-carboxamide], the remaining activity at 5 µM in experiment [1] was 100%; in experiment [2] it was 95.6%; in experiment [3] (setting [8]), 90.3%; in experiment [3] (setting [9]), 79.4%; in experiment [4], 95.9%; in experiment [5] it was 98.1%. Besides, the remaining activity at 5 µM in experiment [6] was found to be 22.7%; in experiment [7], 97.9%.

With `O=C(Nc1cnn(-c2csc(C(=O)NC3COC3)c2)c1)Nc1ccccc1Cl` [Compound 17, 4-(4-(3-(2-chlorophenyl)ureido)-1H-pyrazol-1-yl)-N-(oxetan-3-yl)thiophene-2-carboxamide], the remaining activity at 5 µM in experiment [1] is 102%; in experiment [2] it was 83.5%; in experiment [3] (setting [8]), 92.2%; in experiment [3] (setting [9]) it was 98.2%; in experiment [4] it was 97.5%; in experiment [5] it was 97.8%. For the same molecule, the remaining activity at 5 µM in experiment [6] amounted to 34.1%; in experiment [7] it was 108%.
